Like-named read-outs stand apart in the source and are kept apart here. Starred links: 1 amine or outer side, 2 acyl side, 3 side chain; linkers in the order of their positions; H or OH if unused. Non-standard residues stand in square brackets, D forms with d. Residues, ends and D or L forms follow the SMILES beside them. Groups on a side chain read outwards from the residue. No end group written: not given here. *: point of attachment. C18 diacid = O=C(O)CCCCCCCCCCCCCCCCC(=O)*; αMePhe(2-F) = C[C@](N)(Cc1ccccc1F)C(=O)O; γGlu = O=C(O)[C@H](CCC(=O)[*:2])N[*:1]; αMe4Pal = C[C@](N)(Cc1ccncc1)C(=O)O; αMeY = C[C@](N)(Cc1ccc(O)cc1)C(=O)O; 4Pal = N[C@@H](Cc1ccncc1)C(=O)O; αMeL = CC(C)C[C@](C)(N)C(=O)O; αMeS = C[C@](N)(CO)C(=O)O; Orn = NCCC[C@H](N)C(=O)O; AEEA = NCCOCCOCC(=O)O; Aib = CC(C)(N)C(=O)O
What was measured:
Type in all cases: cell-based
[1] = biological target: T1, hGIPR (Homo sapiens, UniProt P48546); test: Functional cAMP activity in the presence of 1% HSA; settings: read-out: cAMP Rel EC50, hGIPR
T1 sequence (P48546 22-466): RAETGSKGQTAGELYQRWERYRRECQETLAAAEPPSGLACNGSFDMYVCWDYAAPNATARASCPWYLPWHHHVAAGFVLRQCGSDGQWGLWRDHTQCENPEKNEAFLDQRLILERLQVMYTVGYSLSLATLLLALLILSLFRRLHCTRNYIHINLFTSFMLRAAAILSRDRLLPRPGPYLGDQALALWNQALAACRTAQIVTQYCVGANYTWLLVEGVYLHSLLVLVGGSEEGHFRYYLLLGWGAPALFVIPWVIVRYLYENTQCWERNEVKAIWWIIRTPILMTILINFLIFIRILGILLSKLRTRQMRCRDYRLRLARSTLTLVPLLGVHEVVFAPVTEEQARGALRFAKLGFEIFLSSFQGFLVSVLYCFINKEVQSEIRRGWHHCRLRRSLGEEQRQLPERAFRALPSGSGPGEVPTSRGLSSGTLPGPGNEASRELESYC

[2] = biological target: T1, hGIPR; test: Functional cAMP activation in the presence of 0.1% casein (no HSA); settings: read-out: Relative cAMP EC50, hGIPR;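 as to Relative cAMP EC50, hGIPR: intracellular cAMP rise after 30 min at 37 °C read by HTRF against a standard curve, scaled between buffer alone (0%) and top control ligand concentration (100%), four-parameter fit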;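 as to Relative cAMP EC50, hGLP-1R: intracellular cAMP rise after 30 min at 37 °C read by HTRF, normalized between buffer only (0%) and maximal control ligand (100%), four-parameter variable-slope fit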;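 as to Relative cAMP EC50, hGcgR: intracellular cAMP rise after 30 min at 37 °C, read by HTRF against a cAMP standard curve, scaled from buffer only (0%) to maximal control ligand response (100%)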
[3] = biological target: T2, hGLP-1R (Homo sapiens, UniProt P43220); test: as above; settings: read-out: Relative cAMP EC50, hGLP-1R;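 also: intracellular cAMP rise after 30 min at 37 °C read by HTRF, normalized between buffer only (0%) and maximal control ligand (100%), four-parameter variable-slope fit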
[4] = biological target: hGcgR (Homo sapiens, UniProt P47871); test: as above; settings: read-out: Relative cAMP EC50, hGcgR;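 also: intracellular cAMP rise after 30 min at 37 °C, read by HTRF against a cAMP standard curve, scaled from buffer only (0%) to maximal control ligand response (100%)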
[5] = biological target: human GcgR (Homo sapiens, UniProt P47871); test: Functional cAMP activity in the presence of 1% HSA; settings: read-out: cAMP Rel EC50, hGcgR
[6] = biological target: T2, hGLP-1R; test: Functional cAMP activity in the presence of 1% HSA; settings: read-out: cAMP Rel EC50, hGLP-1R
[7] = in the presence of 0.1% casein (no HSA), geometric mean

Sequence of hGcgR (P47871 26-477): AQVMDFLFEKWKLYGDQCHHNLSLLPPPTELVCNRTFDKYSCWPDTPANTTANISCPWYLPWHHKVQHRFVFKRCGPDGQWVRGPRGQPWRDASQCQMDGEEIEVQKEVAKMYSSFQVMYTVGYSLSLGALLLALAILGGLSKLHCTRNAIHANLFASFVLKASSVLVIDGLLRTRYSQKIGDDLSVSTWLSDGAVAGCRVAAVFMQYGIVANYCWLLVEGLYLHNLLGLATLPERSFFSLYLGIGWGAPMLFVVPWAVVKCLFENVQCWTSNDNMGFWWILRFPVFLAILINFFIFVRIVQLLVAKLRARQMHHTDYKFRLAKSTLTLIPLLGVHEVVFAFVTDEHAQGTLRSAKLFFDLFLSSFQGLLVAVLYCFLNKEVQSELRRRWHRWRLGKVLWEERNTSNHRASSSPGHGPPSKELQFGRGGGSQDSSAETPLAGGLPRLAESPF
Sequence of human GcgR (P47871 26-477): as above
T2 sequence (P43220 24-463): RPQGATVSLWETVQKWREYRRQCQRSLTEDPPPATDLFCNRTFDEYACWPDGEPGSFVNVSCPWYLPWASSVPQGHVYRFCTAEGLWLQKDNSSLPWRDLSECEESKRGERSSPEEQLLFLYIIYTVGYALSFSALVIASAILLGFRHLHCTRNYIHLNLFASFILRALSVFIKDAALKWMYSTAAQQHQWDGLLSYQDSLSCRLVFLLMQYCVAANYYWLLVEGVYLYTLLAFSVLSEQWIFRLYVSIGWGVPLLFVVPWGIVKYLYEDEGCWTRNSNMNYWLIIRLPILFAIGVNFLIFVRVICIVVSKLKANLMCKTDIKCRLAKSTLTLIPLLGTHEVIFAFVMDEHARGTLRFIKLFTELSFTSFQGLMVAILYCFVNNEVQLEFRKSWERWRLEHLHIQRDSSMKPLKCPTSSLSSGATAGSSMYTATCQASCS

Molecule | EC50 [1] [nM] | EC50 [2, 7] [nM] | EC50 [3, 7] [nM] | EC50 [4, 7] [nM] | EC50 [5] [nM] | EC50 [6] [nM] | EC50 [2] [nM] | EC50 [3] [nM] | EC50 [4] [nM]
Y[Aib]QGTFTSD[4Pal]SR[αMeL]LDKK([AEEA-γGlu-C18 diacid])AQ[αMe4Pal]AFIE[αMe4Pal]LIEGGPSSGAPPPSGS-NH2 [Example 950] | 18.1 | 0.18 | 2.5 | 1.92 | 327 | 328 |  |  | 
CC[C@H](C)[C@H](NC(=O)[C@H](Cc1ccccc1)NC(=O)[C@H](C)NC(=O)C(C)(C)NC(=O)[C@H](CCC(N)=O)NC(=O)[C@H](C)NC(=O)[C@H](CCCCNC(=O)COCCOCCNC(=O)CC[C@H](NC(=O)CCCCCCCCCCCCCCCCC(=O)O)C(=O)O)NC(=O)[C@H](CCCCN)NC(=O)[C@H](CC(=O)O)NC(=O)[C@H](CC(C)C)NC(=O)[C@](C)(CC(C)C)NC(=O)[C@@H](NC(=O)[C@H](CO)NC(=O)[C@H](Cc1ccncc1)NC(=O)[C@H](CC(=O)O)NC(=O)[C@H](CO)NC(=O)[C@@H](NC(=O)[C@](C)(Cc1ccccc1F)NC(=O)[C@@H](NC(=O)CNC(=O)[C@H](CCC(N)=O)NC(=O)C(C)(C)NC(=O)[C@@H](N)Cc1ccc(O)cc1)[C@@H](C)O)[C@@H](C)O)[C@@H](C)CC)C(=O)N[C@@H](CCC(=O)O)C(=O)N[C@@H](Cc1ccc(O)cc1)C(=O)N[C@@H](CC(C)C)C(=O)N[C@@H](CCC(=O)O)C(=O)N[C@@H](CCC(=O)O)C(=O)NCC(=O)NCC(=O)N1CCC[C@H]1C(=O)N[C@@H](CO)C(=O)N[C@@H](CO)C(=O)NCC(=O)N[C@@H](C)C(=O)N1CCC[C@H]1C(=O)N1CCC[C@H]1C(=O)N1CCC[C@H]1C(=O)N[C@@H](CO)C(N)=O [Example 422] (H-Y[Aib]QGT[αMePhe(2-F)]TSD[4Pal]SI[αMeL]LDKK([AEEA-γGlu-C18 diacid])AQ[Aib]AFIEYLEEGGPSSGAPPPS-NH2) | 4.4 |  |  |  | 493 | 27.1 | 0.0216 | 0.252 | 14.5
H-Y[Aib]QGT[αMePhe(2-F)]TSD[4Pal][αMeS]I[αMeL]LD[Orn]K([AEEA-γGlu-C18 diacid])AQ[αMe4Pal]EFI[dE][αMeY]LVEGGPSSGEPPPSGTGE-NH2 [Example 734] | 1.3 |  |  |  | 230 | 38.1 | 0.0132 | 0.417 | 2.08
CC[C@H](C)[C@H](NC(=O)[C@H](Cc1ccccc1)NC(=O)[C@H](C)NC(=O)C(C)(C)NC(=O)[C@H](CCC(N)=O)NC(=O)[C@H](C)NC(=O)[C@H](CCCCNC(=O)CC[C@H](NC(=O)CC[C@H](NC(=O)CCCCCCCCCCCCCCCCC(=O)O)C(=O)O)C(=O)O)NC(=O)[C@H](CCCCN)NC(=O)[C@H](CC(=O)O)NC(=O)[C@H](CC(C)C)NC(=O)[C@H](CC(C)C)NC(=O)[C@@H](NC(=O)[C@H](CO)NC(=O)[C@H](Cc1ccncc1)NC(=O)[C@H](CC(=O)O)NC(=O)[C@H](CO)NC(=O)[C@@H](NC(=O)[C@](C)(Cc1ccccc1F)NC(=O)[C@@H](NC(=O)CNC(=O)[C@H](CCC(N)=O)NC(=O)C(C)(C)NC(=O)[C@@H](N)Cc1ccc(O)cc1)[C@@H](C)O)[C@@H](C)O)[C@@H](C)CC)C(=O)N[C@@H](CCC(=O)O)C(=O)N[C@@H](Cc1ccc(O)cc1)C(=O)N[C@@H](CC(C)C)C(=O)N[C@@H](CCC(=O)O)C(=O)N[C@@H](CCC(=O)O)C(=O)NCC(=O)NCC(=O)N1CCC[C@H]1C(=O)N[C@@H](CO)C(=O)N[C@@H](CO)C(=O)NCC(=O)N[C@@H](C)C(=O)N1CCC[C@H]1C(=O)N1CCC[C@H]1C(=O)N1CCC[C@H]1C(=O)N[C@@H](CCC(=O)O)C(=O)NCC(=O)N[C@H](C(=O)NCC(=O)N[C@@H](CCC(=O)O)C(N)=O)[C@@H](C)O [Example 660] | 4.64 |  |  |  | 455 | 76.9 | 0.0646 | 1.27 | 7.38
Y[Aib]QGTFTSD[4Pal]SQ[αMeL]LDKK([AEEA-γGlu-C18 diacid])AQ[αMe4Pal]AFIEYLIE[dA]GPSSGAPPPSGS-NH2 [Example 829] | 22.4 | 0.124 | 1.15 | 2.41 | 325 | 130 |  |  | 
CC[C@H](C)[C@H](NC(=O)[C@H](Cc1ccccc1)NC(=O)[C@H](C)NC(=O)C(C)(C)NC(=O)[C@H](CCC(N)=O)NC(=O)[C@H](C)NC(=O)[C@H](CCCCNC(=O)COCCOCCNC(=O)CC[C@H](NC(=O)CCCCCCCCCCCCCCCCC(=O)O)C(=O)O)NC(=O)[C@H](CCCCN)NC(=O)[C@H](CC(=O)O)NC(=O)[C@H](CC(C)C)NC(=O)[C@H](CC(C)C)NC(=O)[C@H](CO)NC(=O)[C@H](CO)NC(=O)[C@H](Cc1ccc(O)cc1)NC(=O)[C@H](CC(=O)O)NC(=O)[C@H](CO)NC(=O)[C@@H](NC(=O)[C@](C)(Cc1ccccc1F)NC(=O)[C@@H](NC(=O)CNC(=O)[C@H](CCC(N)=O)NC(=O)C(C)(C)NC(=O)[C@@H](N)Cc1ccc(O)cc1)[C@@H](C)O)[C@@H](C)O)C(=O)N[C@@H](CCC(=O)O)C(=O)N[C@@H](Cc1ccc(O)cc1)C(=O)N[C@@H](CC(C)C)C(=O)N[C@@H](CCC(=O)O)C(=O)N[C@@H](CCC(=O)O)C(=O)NCC(=O)NCC(=O)N1CCC[C@H]1C(=O)N[C@@H](CO)C(=O)N[C@@H](CO)C(=O)NCC(=O)N[C@@H](C)C(=O)N1CCC[C@H]1C(=O)N1CCC[C@H]1C(=O)N1CCC[C@H]1C(=O)N[C@@H](CO)C(N)=O [Example 409] (H-Y[Aib]QGT[αMePhe(2-F)]TSDYSSLLDKK([AEEA-γGlu-C18 diacid])AQ[Aib]AFIEYLEEGGPSSGAPPPS-NH2) | 66.6 |  |  |  | 1190 | 41.7 | 0.363 | 0.484 | 7.92
H-Y[Aib]QGTFTSD[4Pal]S[Orn][αMeL]LDKK([γGlu-γGlu-γGlu-C18 diacid])AQ[αMe4Pal]AFIEYLIE[Aib]GPSSGAPPPSGS-NH2 [Example 866] | 23.8 | 0.148 | 4.01 | 4.48 | 669 | 483 |  |  | 
H-Y[Aib]QGTFTSD[4Pal]SQ[αMeL]LDKK([γGlu-γGlu-C18 diacid])AQ[Aib]AFIE[αMeY]LLEGGPSSGAPPPSGS-NH2 [Example 938] | 21.5 | 0.13 | 1.84 | 13.3 | 2830 | 263 |  |  | 
H-Y[Aib]QGTFTSD[4Pal]SQ[αMeL]LD[Orn]K([AEEA-γGlu-C18 diacid])AQ[αMe4Pal]AFIEYLIQ[Aib]GPSSGEPPPSGSEE-NH2 [Example 1096] | 11.6 | 0.0799 | 1.47 | 3.94 | 397 | 194 |  |  | 
CC[C@H](C)[C@H](NC(=O)[C@H](Cc1ccccc1)NC(=O)[C@H](C)NC(=O)C(C)(C)NC(=O)[C@H](CCC(N)=O)NC(=O)[C@H](C)NC(=O)[C@H](CCCCNC(=O)COCCOCCNC(=O)COCCOCCNC(=O)CC[C@H](NC(=O)CCCCCCCCCCCCCCCCC(=O)O)C(=O)O)NC(=O)[C@H](CCCCN)NC(=O)[C@H](CC(=O)O)NC(=O)[C@H](CC(C)C)NC(=O)[C@](C)(CC(C)C)NC(=O)[C@H](CCCN)NC(=O)[C@H](CO)NC(=O)[C@H](Cc1ccccc1)NC(=O)[C@H](CC(=O)O)NC(=O)[C@H](CO)NC(=O)[C@@H](NC(=O)[C@H](Cc1ccccc1)NC(=O)[C@@H](NC(=O)CNC(=O)[C@H](CCC(N)=O)NC(=O)C(C)(C)NC(=O)[C@@H](N)Cc1ccc(O)cc1)[C@@H](C)O)[C@@H](C)O)C(=O)N[C@@H](CCC(=O)O)C(=O)N[C@@H](Cc1ccc(O)cc1)C(=O)N[C@@H](CC(C)C)C(=O)N[C@@H](CC(C)C)C(=O)N[C@@H](CCC(=O)O)C(=O)N[C@H](C)C(=O)NCC(=O)N1CCC[C@H]1C(=O)N[C@@H](CO)C(=O)N[C@@H](CO)C(=O)NCC(=O)N[C@@H](C)C(=O)N1CCC[C@H]1C(=O)N1CCC[C@H]1C(=O)N1CCC[C@H]1C(=O)N[C@@H](CO)C(=O)NCC(=O)N[C@@H](CCC(=O)O)C(N)=O [Example 128] | 24.3 | 0.307 | 3.5 | 6.76 | 1090 | 679 |  |  | 
Y[Aib]QGTFTSD[4Pal]SQ[αMeL]LDKK([AEEA-γGlu-C18 diacid])AQ[αMe4Pal]AFIE[αMeY]LIEGGPSSGAPPPEGS-NH2 [Example 852] | 45.6 | 0.34 | 0.871 | 2.26 | 1230 | 182 |  |  | 
H-Y[Aib]QGT[αMePhe(2-F)]TSD[4Pal][αMeS]I[αMeL]LD[Orn]K([γGlu-γGlu-C18 diacid])AQ[Aib][Orn]FI[dE][αMeY]LTEGGPSSGEPPPSGTGE-NH2 [Example 543] | 1.88 |  |  |  | 300 | 32 | 0.0319 | 0.41 | 4.56
H-Y[Aib]QGT[αMePhe(2-F)]TSD[4Pal][αMeS]I[αMeL]LD[Orn]K([γGlu-γGlu-C18 diacid])AQ[αMe4Pal]EFI[dE][αMeY]LIEGGPSSGEPPPSGE-NH2 [Example 1151] | 0.287 | 0.00339 | 0.262 | 1.31 | 206 | 40 |  |  | 

Reference: patent US20240270821A1, “GIP/GLP1/GCG TRI-RECEPTOR AGONISTS AND USES THEREOF” (priority 2023, published 2024)
